Read-outs that look alike come from different tables or passages of the source.
Experiments:
purified 20S proteasome = purified 20S proteasome (UniProt Q9P992); test: Inhibition of chymotrypsin-like activity of purified 20S proteasome (source not stated); type: biochemical; set-up: IC50; other: purified 20S proteasome, multiple concentrations; conditions: purified 20S proteasome, multiple concentrations
Protocol: Inhibition of purified 20S proteasome activity by natural or synthetic GTPs. Purified prokaryotic (0.5 μg) or eukaryotic (0.02 μg) 20S proteasome was incubated with 20 μM fluorogenic peptide substrate, Suc-Leu-Leu-Val-Tyr-AMC for 30 min at 37° C. in […] of assay buffer (50 mM Tris-HCl, pH 7.5), with or without a natural or synthetic tea polyphenol. After incubation, production of hydrolyzed 7-amido-4-methyl-coumarin (AMC) groups was measured using a multi-well plate VERSAFLUOR Fluorometer with an excitation filter of 380 nm and an emission filter of 460 nm (BIO-RAD), and a multi-well plate reader Wallac 1420 VICTORTM^2 with an excitation filter of 355 nm and an emission filter of 460 nm (EG&G WALLAC).

DU145 cells [1] = test: Western blot of Bax and PARP in DU145 cells; type: cell-based, human; conditions: 10 μM, 24 hours
Protocol: (§1) Cell Culture, Cell Extract Preparation, and Western Blot Assay. Human leukemia Jurkat T and prostate cancer LNCaP cells were cultured in RPMI 1640 medium supplemented with 10% fetal calf serum, 100 units/ml of penicillin, and 100 μg/ml streptomycin. Human immortalized, non-transformed NK cells (YT cell line) (38) were cultured in RPMI 1640 supplemented with 1 mM MEM sodium pyruvate solution, 0.1 mM MEM non-essential amino acids solution, 10% fetal calf serum. 100 units/ml penicillin, and 100 μg/ml streptomycin. Normal (WI-38) and simian virus 40 (SV40)-transformed (VA-13) human fibroblasts were grown in Dulbecco's modified Eagle's medium supplemented with 10% fetal calf serum, 100 units/ml of penicillin and 100 μg/ml of streptomycin. All cells were maintained at 37° C. in a humidified incubator with an atmosphere of 5% CO2. A whole cell extract was prepared in accordance with An et al. (An, B. et al. Cell Death Differ, 1998, 5:1062-75). […] The ratio of p27 or IκB-α to the corresponding actin was determined by scanning intensities of the protein bands.
Exponentially growing LNCaP and DU-145 prostate cells were harvested and the levels of Bax protein was detected by Western blot analysis (FIG. 20A). […]

LNCaP cells = test: Cell-free caspase-3 activity assay, LNCaP cells; type: cell-based, human; conditions: 10 μM, normalized to 0 hours
Protocol: (§2) To examine whether (+)-EGCG could induce apoptosis only in LNCaP, but not DU-145, cells, both cell lines were treated with 10 μM (+)-EGCG for 0, 24, 48 or 72 hours, followed by performance of cell-free caspase-3 activity assay. Cells were harvested at each sequential time-point and activity was determined by incubating whole cell extracts with caspase-3 substrate and measuring free AMCs (FIG. 20C). All the time-points were normalized to 0 hours. (+)-EGCG activated caspase-3 in LNCaP cells in a time-dependent manner: by 2.5-, 3.5- and 6-fold at 24, 48 and 72 hours, respectively (FIG. 20C). In contrast, little caspase-3 activity was detected in (+)-EGCG-treated in DU145 cells: only ˜2-fold induction at 72 hours (FIG. 20C). In the same experiment, (−)-EGCG at 10 μM was used as a control. […] Therefore, the abilities of (+)-EGCG to activate apoptotic program in these prostate cancer cell lines are correlated well to their abilities to accumulate Bax protein levels to a critical high threshold (compare FIGS. 20C and 20D vs. 20B). Values are means of triplicate independent experiments and error bars denote standard deviations.

DU145 cells [2] = test: Cell-free caspase-3 activity assay, DU145 cells; type: cell-based, human; conditions: 10 μM, 72 hours, normalized to 0 hours
Protocol: as §2

NK cells (YT cell line) = test: Western blot of proteasome target proteins in non-transformed NK cells (YT line); type: cell-based, human; conditions: treatment up to 12 hour
Protocol: Cell Culture, Cell Extract Preparation, and Western Blot Assay. Human leukemia Jurkat T and prostate cancer LNCaP cells were cultured in RPMI 1640 medium supplemented with 10% fetal calf serum, 100 units/ml of penicillin, and 100 μg/ml streptomycin. Human immortalized, non-transformed NK cells (YT cell line) (38) were cultured in RPMI 1640 supplemented with 1 mM MEM sodium pyruvate solution, 0.1 mM MEM non-essential amino acids solution, 10% fetal calf serum. 100 units/ml penicillin, and 100 μg/ml streptomycin. Normal (WI-38) and simian virus 40 (SV40)-transformed (VA-13) human fibroblasts were grown in Dulbecco's modified Eagle's medium supplemented with 10% fetal calf serum, 100 units/ml of penicillin and 100 μg/ml of streptomycin. All cells were maintained at 37° C. in a humidified incubator with an atmosphere of 5% CO2. A whole cell extract was prepared in accordance with An et al. (An, B. et al. Cell Death Differ, 1998, 5:1062-75). Briefly, cells were harvested, washed with PBS twice, and homogenized in a lysis buffer [50 mM Tris-HCl (pH 8.0), 5 mM EDTA, 150 mM NaCl, 0.5% NP-40, 0.5 mM phenylmethylsulfonyl fluoride, and 0.5 mM dithiothreitol] for 30 min at 4° C. Afterwards, lysates were centrifuged at 12,000×g for 15 min at 4° C., and the supernatants were collected as whole cell extracts. Equal amounts of protein extract (60 μg) were resolved by SDS-polyacrylamide gel electrophoresis and transferred to a nitrocellulose membrane using a Semi-Dry Transfer system (BIO-RAD, Hercules, Calif.). Jurkat T, LNCaP, or DU-145 cells were treated with various concentrations of synthetic or natural tea polyphenols for indicted hours. The enhanced chemiluminescence (ECL) Western blot analysis was then performed using specific antibodies to the proteins of interest (p^27kip, IκB-α, PARP, Bax or actin). The ratio of p27 or IκB-α to the corresponding actin was determined by scanning intensities of the protein bands. […]

WI-38 cells = test: Western blot of p27 in normal WI-38 fibroblasts; type: cell-based, human; conditions: 25 μM, 36 hours
Protocol: as §1, with “5:1062-75). Briefly, cells were harvested, washed with PBS twice, and homogenized in a lysis buffer [50 mM Tris-HCl (pH 8.0), 5 mM EDTA, 150 mM NaCl, 0.5% NP-40, 0.5 mM phenylmethylsulfonyl fluoride, and 0.5 mM dithiothreitol] for 30 min at 4° C.” for “5:1062-75).”, “bands. […]” for “bands.”

MCF-7 cells = test: Proteasome inhibition / p27 accumulation in MCF-7 cells; type: cell-based, human

Chain of purified 20S proteasome (Q9P992 whole entry): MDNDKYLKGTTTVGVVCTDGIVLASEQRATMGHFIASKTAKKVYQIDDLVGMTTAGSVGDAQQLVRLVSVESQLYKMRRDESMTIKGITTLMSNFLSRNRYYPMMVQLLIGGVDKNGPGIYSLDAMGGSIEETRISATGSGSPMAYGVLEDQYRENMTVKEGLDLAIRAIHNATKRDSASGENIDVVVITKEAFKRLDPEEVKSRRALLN

O=C(OC1Cc2c(O)cc(O)cc2OC1c1cc(O)c(O)c(O)c1)c1cc(O)c(O)c(O)c1 (single isomer, unassigned; (+)) [(+)-EGCG]
IC50 (purified 20S proteasome; read-out: IC50): 210 nM
Bax protein levels (DU145 cells [1]): neither (+)-EGCG nor (−)-EGCG was able to increase the levels of Bax protein
caspase-3 activation (LNCaP cells; 24 hours): 2.5 fold
caspase-3 activation (LNCaP cells; 48 hours): 3.5 fold
caspase-3 activation (LNCaP cells; 72 hours): 6 fold
caspase-3 induction (DU145 cells [2]): ~2 fold

O=C(OC1Cc2c(O)cc(O)cc2OC1c1cc(O)c(O)c(O)c1)c1cc(O)c(O)c(O)c1 (single isomer, unassigned; (+)) [(+)-GCG]
IC50 (purified 20S proteasome): 410 nM

O=C(O[C@@H]1Cc2c(O)cc(O)cc2O[C@@H]1c1cc(O)c(O)c(O)c1)c1cc(O)c(O)c(O)c1 [(−)-EGCG, (−)-epigallocatechin-3-gallate, reference compound]
Bax protein levels (DU145 cells [1]): neither (+)-EGCG nor (−)-EGCG was able to increase the levels of Bax protein
IκB-α expression (NK cells (YT cell line)): unchanged
p27 expression (NK cells (YT cell line)): no p27 expression was detected

O=C(N[C@@H]1Cc2c(O)cc(O)cc2O[C@@H]1c1cc(O)c(O)c(O)c1)c1cc(O)c(O)c(O)c1 [(−)-EGCG-amide, (−)-[2R,3R]-N-[5,7-Dihydroxy-2-(3,4,5-trihydroxyphenyl)-chroman-3-yl]-3,4,5-trihydroxybenzamide]
p27 levels (WI-38 cells): slightly increased
IκB-α expression (NK cells (YT cell line)): unchanged
inhibition of proteasome activity / accumulation of p27 (MCF-7 cells): able to inhibit the proteasome activity
